Test results published in PubChem BioAssay AID2060889 (Molecular Pharmacology Branch, DTP, NCI, 2025).
Each block holds one compound with its values, some of them ahead of it.

System: LG0567-F671-PDC complex spheroids viability
Test: Anticancer human tumor LG0567-F671-PDC patient-derived lung adenocarcinoma cell line growth inhibition [RAS]
Conditions: for IC50: curve of first compound; for viability, T/C: stronger effect = lower value
Source text: RAS pathway inhibitors in Combinations in Complex Spheroids
A high-throughput screen of multi-cell type tumor spheroids was designed to identify active combinations of RAS pathway inhibitors and targeted small molecules. Complex spheroids include a stromal component modeled by human endothelial cells (HUVEC) and fibroblasts modeled by human mesenchymal stem cells (MSCs). The concentration ranges selected for each drug and investigational agent were based upon clinically achievable concentrations if the clinical Cmax of the agent was known.
Compounds. The drugs and investigational agents: abemaciclib (NSC768073), cobimetinib (NSC768068), divarasib (GDC6063, NSC841802), docetaxel (NSC628503), GDC-1971 (RLY-1971, NSC841576), gemcitabine (NSC613327), inavolisib (NSC800729), ipatasertib (NSC767898), KB-0742 (NSC834161), MRTX-1133 (NSC836407), osimertinib (NSC779217), RMC-4630 (NSC839698), RMC-6236 (NSC851965), RMC-6291 (NSC852671), Ro-3306 (NSC812927), sapanisertib (NSC764658), SN-38 (NSC673596), staurosporine (NSC755774), SY5609 (NSC837396), and tovorafenib (DAY101, NSC766906), were obtained from the National Cancer Institute (NCI) Developmental Therapeutics Program Chemical Repository. The FDA-approved anticancer drug set is available from the NCI Developmental Therapeutics Program. […] The stock solutions were prepared in dimethyl sulfoxide (DMSO, Sigma-Aldrich, St. Louis, MO, cat. D2650) at 800-fold the tested concentration and stored at -70 degrees C prior to their use. All drugs and investigational agents were tested over a range starting from a high concentration at or near the clinical Cmax and decreasing in half-log increments. If the clinical Cmax for an agent had not been determined, the highest concentration tested was 10 microM.
Cell Culture. All cells were maintained in an incubator at 37 degrees C and 5% CO2 with 95% humidity. The PDC lines were cultured according to standard operating procedures established by the NCI PDMR. All PDCs were thawed and cultured in Matrigel-coated flasks prepared with a working solution of 1X Ham's F-12 nutrient mix, without supplementation (Invitrogen, Waltham, MA, cat. 11765054), 100 U/mL penicillin-streptomycin (Invitrogen, cat. 15140122), and 2.5% Matrigel (Corning Inc., Corning, NY, cat. 354248) for the first three passages. The 362531-283-R-J2-PDC and 782815-120-R-J1-PDC lines were cultured in 6C/Colon 1B media, which includes advanced DMEM/F-12 (Thermo Fisher Scientific, cat. 12634028), 10 mM HEPES (Thermo Fisher Scientific, cat. 15630080), 1X GlutaMAX supplement (Thermo Fisher Scientific, cat. 35050061), 0.1 mg/mL primocin (InvivoGen, San Diego, CA, cat. ant-pm-2), 10% defined fetal bovine serum, heat inactivated (HyClone Laboratories Inc., Logan, UT, cat. SH30070.03HI), 50% L-WRN conditioned media (ATCC, cat. CRL-3276), 1.25 mM N-Acetyl-L-cysteine (Sigma-Aldrich, cat. A9165), 10 mM nicotinamide (Sigma-Aldrich, cat. N0636), 1X B-27 supplement (Thermo Fisher Scientific, cat. 17504044), 1X N-2 supplement (Thermo Fisher Scientific, cat. 17502048), 50 ng/mL human EGF (Thermo Fisher Scientific, cat. PHG0311), and 10 microM Y-27632 dihydrochloride (Tocris Bioscience, cat. 1254). The K12877-001-R-J1-PDC line was cultured in 6I media, which includes all 6C/Colon 1B media plus 10 ng/mL human FGF-10 (PeproTech, cat. 100-26), 1 ng/mL human FGF-2 (PeproTech, cat. 100-18B), 1 µM prostaglandin E2 (Tocris Bioscience, cat. 2296), […] hydrocortisone (Sigma-Aldrich, cat. H4001), and […] bovine insulin (Sigma-Aldrich, cat. I6634). The K86415-001-R-J1-PDC line was cultured in 6D media, which includes all 6C/Colon 1B media components minus the L-WRN conditioned media. The 485176-168-R4-J1-PDC was cultured in PANC media, which includes all 6C/Colon 1B media plus 100 ng/mL human FGF-10 (PeproTech, cat. 100-26), 500 nM SB-431542 (Selleckchem, cat. S1067), and 10 nM gastrin (Tocris Bioscience, cat. 3006). […]

[1] = second compound 0.0316 µM, first compound 0.0316 µM
[2] = second compound 0.0316 µM, first compound 0.1 µM
[3] = second compound 0.0316 µM, first compound 0.316 µM
[4] = second compound 0.0316 µM, first compound 1 µM
[5] = second compound 0.0316 µM, first compound 3.16 µM
[6] = second compound 0.0316 µM, first compound 10 µM
[7] = second compound 0.1 µM, first compound 0.0316 µM
[8] = second compound 0.1 µM, first compound 0.1 µM
[9] = second compound 0.1 µM, first compound 0.316 µM
[10] = second compound 0.1 µM, first compound 1 µM
[11] = second compound 0.1 µM, first compound 3.16 µM
[12] = second compound 0.1 µM, first compound 10 µM
[13] = second compound 0.316 µM, first compound 0.0316 µM
[14] = second compound 0.316 µM, first compound 0.1 µM
[15] = second compound 0.316 µM, first compound 0.316 µM
[16] = second compound 0.316 µM, first compound 1 µM
[17] = second compound 0.316 µM, first compound 3.16 µM
[18] = second compound 0.316 µM, first compound 10 µM
[19] = second compound 1 µM, first compound 0.0316 µM
[20] = second compound 1 µM, first compound 0.1 µM
[21] = second compound 1 µM, first compound 0.316 µM
[22] = second compound 1 µM, first compound 1 µM
[23] = second compound 1 µM, first compound 3.16 µM
[24] = second compound 1 µM, first compound 10 µM
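Note: spheroids exposed to compound for seven days before readout.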
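Throughout, for IC50: luminescence signal used as a proxy for viable cells.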

IC50 (second compound 0.00316 µM): < 0.0316 µM | IC50 (second compound 0.01 µM): < 0.0316 µM | IC50 (second compound 0.0316 µM): < 0.0316 µM | IC50 (second compound 0.1 µM): < 0.0316 µM | IC50 (second compound 0.316 µM): < 0.0316 µM | IC50 (second compound 1 µM): < 0.0316 µM
SMILES: CCC(CC)c1cc(NC2CCC(N)C2)n2nccc2n1 (centres undefined) + C=CC(=O)N1CCN(c2nc(OCC3CCCN3C)nc3c(F)c(-c4nc(N)cc(C)c4C(F)(F)F)c(Cl)cc23)C(C)C1
viability, T/C (second compound 0.00316 µM, first compound 0.0316 µM): 18.7% | viability, T/C (second compound 0.00316 µM, first compound 0.1 µM): 16.5% | viability, T/C (second compound 0.00316 µM, first compound 0.316 µM): 17.8% | viability, T/C (second compound 0.00316 µM, first compound 1 µM): 15.8% | viability, T/C (second compound 0.00316 µM, first compound 3.16 µM): 3.58% | viability, T/C (second compound 0.00316 µM, first compound 10 µM): 0.33% | viability, T/C (second compound 0.01 µM, first compound 0.0316 µM): 12.8% | viability, T/C (second compound 0.01 µM, first compound 0.1 µM): 13.4% | viability, T/C (second compound 0.01 µM, first compound 0.316 µM): 15.6% | viability, T/C (second compound 0.01 µM, first compound 1 µM): 12.7% | viability, T/C (second compound 0.01 µM, first compound 3.16 µM): 3.96% | viability, T/C (second compound 0.01 µM, first compound 10 µM): 0.45% | viability, T/C [1]: 11.5% | viability, T/C [2]: 11.6% | viability, T/C [3]: 12.2% | viability, T/C [4]: 11.2% | viability, T/C [5]: 3.67% | viability, T/C [6]: 0.43% | viability, T/C [7]: 11.6% | viability, T/C [8]: 16.4% | viability, T/C [9]: 12.2% | viability, T/C [10]: 10.4% | viability, T/C [11]: 3.67% | viability, T/C [12]: 0.68% | viability, T/C [13]: 11.4% | viability, T/C [14]: 11.2% | viability, T/C [15]: 12.8% | viability, T/C [16]: 11.4% | viability, T/C [17]: 4.66% | viability, T/C [18]: 0.75% | viability, T/C [19]: 14.2% | viability, T/C [20]: 14.3% | viability, T/C [21]: 14.3% | viability, T/C [22]: 12.2% | viability, T/C [23]: 4.35% | viability, T/C [24]: 0.62%

IC50 (second compound 0.0316 µM): 0.0658 µM | IC50 (second compound 0.1 µM): < 0.0316 µM | IC50 (second compound 0.316 µM): < 0.0316 µM | IC50 (second compound 1 µM): < 0.0316 µM | IC50 (second compound 3.16 µM): < 0.0316 µM | IC50 (second compound 10 µM): < 0.0316 µM
SMILES: Cc1nc(N2CCC3(CC2)COC(C)C3N)c(CO)nc1Sc1ccnc(N)c1Cl (centres undefined) + C#Cc1c(F)ccc2cc(O)cc(-c3ncc4c(N5CC6CCC(C5)N6)nc(OCC56CCCN5CC(F)C6)nc4c3F)c12
viability, T/C [1]: 63.3% | viability, T/C [2]: 43.5% | viability, T/C [3]: 26.2% | viability, T/C [4]: 19.9% | viability, T/C [5]: 15.2% | viability, T/C [6]: 13.1% | viability, T/C [7]: 46.1% | viability, T/C [8]: 31.3% | viability, T/C [9]: 21.6% | viability, T/C [10]: 15.5% | viability, T/C [11]: 12.7% | viability, T/C [12]: 9.84% | viability, T/C [13]: 35.3% | viability, T/C [14]: 20.9% | viability, T/C [15]: 18.1% | viability, T/C [16]: 10.4% | viability, T/C [17]: 8.05% | viability, T/C [18]: 7.7% | viability, T/C [19]: 21% | viability, T/C [20]: 16.2% | viability, T/C [21]: 10.6% | viability, T/C [22]: 10.3% | viability, T/C [23]: 4.69% | viability, T/C [24]: 3.85% | viability, T/C (second compound 3.16 µM, first compound 0.0316 µM): 12.1% | viability, T/C (second compound 3.16 µM, first compound 0.1 µM): 8.68% | viability, T/C (second compound 3.16 µM, first compound 0.316 µM): 5.69% | viability, T/C (second compound 3.16 µM, first compound 1 µM): 4.95% | viability, T/C (second compound 3.16 µM, first compound 3.16 µM): 3.57% | viability, T/C (second compound 3.16 µM, first compound 10 µM): 2.94% | viability, T/C (second compound 10 µM, first compound 0.0316 µM): 7.2% | viability, T/C (second compound 10 µM, first compound 0.1 µM): 6.13% | viability, T/C (second compound 10 µM, first compound 0.316 µM): 3.88% | viability, T/C (second compound 10 µM, first compound 1 µM): 2.23% | viability, T/C (second compound 10 µM, first compound 3.16 µM): 2.98% | viability, T/C (second compound 10 µM, first compound 10 µM): 1.91%
